≈ marks a conversion by molar mass, not a printed value.
How the values were obtained:
[1] = Buffer/octanol partition coefficient, log D of the compound at pH 7.4 by shake flask method; type: physicochemical
[2] = Thermodynamic solubility of the compound in 0.1M aqueous phosphate buffer at pH 7.4 after 24 hrs by LC-UV analysis; type: physicochemical; details: read-out: Therm_solubility
[3] = Intrinsic clearance in human hepatocytes assessed per million cells
[4] = Intrinsic clearance in rat hepatocytes assessed per million cells
[5] = Apparent permeability across apical to basolateral side in MDCK cells overexpressing MDR1; type: ADME, cell-based, Canis lupus familiaris; details: dog
[6] = target: Serine-protein kinase ATM (Homo sapiens, UniProt Q13315)
Serine-protein kinase ATM, sequence (Q13315 whole entry): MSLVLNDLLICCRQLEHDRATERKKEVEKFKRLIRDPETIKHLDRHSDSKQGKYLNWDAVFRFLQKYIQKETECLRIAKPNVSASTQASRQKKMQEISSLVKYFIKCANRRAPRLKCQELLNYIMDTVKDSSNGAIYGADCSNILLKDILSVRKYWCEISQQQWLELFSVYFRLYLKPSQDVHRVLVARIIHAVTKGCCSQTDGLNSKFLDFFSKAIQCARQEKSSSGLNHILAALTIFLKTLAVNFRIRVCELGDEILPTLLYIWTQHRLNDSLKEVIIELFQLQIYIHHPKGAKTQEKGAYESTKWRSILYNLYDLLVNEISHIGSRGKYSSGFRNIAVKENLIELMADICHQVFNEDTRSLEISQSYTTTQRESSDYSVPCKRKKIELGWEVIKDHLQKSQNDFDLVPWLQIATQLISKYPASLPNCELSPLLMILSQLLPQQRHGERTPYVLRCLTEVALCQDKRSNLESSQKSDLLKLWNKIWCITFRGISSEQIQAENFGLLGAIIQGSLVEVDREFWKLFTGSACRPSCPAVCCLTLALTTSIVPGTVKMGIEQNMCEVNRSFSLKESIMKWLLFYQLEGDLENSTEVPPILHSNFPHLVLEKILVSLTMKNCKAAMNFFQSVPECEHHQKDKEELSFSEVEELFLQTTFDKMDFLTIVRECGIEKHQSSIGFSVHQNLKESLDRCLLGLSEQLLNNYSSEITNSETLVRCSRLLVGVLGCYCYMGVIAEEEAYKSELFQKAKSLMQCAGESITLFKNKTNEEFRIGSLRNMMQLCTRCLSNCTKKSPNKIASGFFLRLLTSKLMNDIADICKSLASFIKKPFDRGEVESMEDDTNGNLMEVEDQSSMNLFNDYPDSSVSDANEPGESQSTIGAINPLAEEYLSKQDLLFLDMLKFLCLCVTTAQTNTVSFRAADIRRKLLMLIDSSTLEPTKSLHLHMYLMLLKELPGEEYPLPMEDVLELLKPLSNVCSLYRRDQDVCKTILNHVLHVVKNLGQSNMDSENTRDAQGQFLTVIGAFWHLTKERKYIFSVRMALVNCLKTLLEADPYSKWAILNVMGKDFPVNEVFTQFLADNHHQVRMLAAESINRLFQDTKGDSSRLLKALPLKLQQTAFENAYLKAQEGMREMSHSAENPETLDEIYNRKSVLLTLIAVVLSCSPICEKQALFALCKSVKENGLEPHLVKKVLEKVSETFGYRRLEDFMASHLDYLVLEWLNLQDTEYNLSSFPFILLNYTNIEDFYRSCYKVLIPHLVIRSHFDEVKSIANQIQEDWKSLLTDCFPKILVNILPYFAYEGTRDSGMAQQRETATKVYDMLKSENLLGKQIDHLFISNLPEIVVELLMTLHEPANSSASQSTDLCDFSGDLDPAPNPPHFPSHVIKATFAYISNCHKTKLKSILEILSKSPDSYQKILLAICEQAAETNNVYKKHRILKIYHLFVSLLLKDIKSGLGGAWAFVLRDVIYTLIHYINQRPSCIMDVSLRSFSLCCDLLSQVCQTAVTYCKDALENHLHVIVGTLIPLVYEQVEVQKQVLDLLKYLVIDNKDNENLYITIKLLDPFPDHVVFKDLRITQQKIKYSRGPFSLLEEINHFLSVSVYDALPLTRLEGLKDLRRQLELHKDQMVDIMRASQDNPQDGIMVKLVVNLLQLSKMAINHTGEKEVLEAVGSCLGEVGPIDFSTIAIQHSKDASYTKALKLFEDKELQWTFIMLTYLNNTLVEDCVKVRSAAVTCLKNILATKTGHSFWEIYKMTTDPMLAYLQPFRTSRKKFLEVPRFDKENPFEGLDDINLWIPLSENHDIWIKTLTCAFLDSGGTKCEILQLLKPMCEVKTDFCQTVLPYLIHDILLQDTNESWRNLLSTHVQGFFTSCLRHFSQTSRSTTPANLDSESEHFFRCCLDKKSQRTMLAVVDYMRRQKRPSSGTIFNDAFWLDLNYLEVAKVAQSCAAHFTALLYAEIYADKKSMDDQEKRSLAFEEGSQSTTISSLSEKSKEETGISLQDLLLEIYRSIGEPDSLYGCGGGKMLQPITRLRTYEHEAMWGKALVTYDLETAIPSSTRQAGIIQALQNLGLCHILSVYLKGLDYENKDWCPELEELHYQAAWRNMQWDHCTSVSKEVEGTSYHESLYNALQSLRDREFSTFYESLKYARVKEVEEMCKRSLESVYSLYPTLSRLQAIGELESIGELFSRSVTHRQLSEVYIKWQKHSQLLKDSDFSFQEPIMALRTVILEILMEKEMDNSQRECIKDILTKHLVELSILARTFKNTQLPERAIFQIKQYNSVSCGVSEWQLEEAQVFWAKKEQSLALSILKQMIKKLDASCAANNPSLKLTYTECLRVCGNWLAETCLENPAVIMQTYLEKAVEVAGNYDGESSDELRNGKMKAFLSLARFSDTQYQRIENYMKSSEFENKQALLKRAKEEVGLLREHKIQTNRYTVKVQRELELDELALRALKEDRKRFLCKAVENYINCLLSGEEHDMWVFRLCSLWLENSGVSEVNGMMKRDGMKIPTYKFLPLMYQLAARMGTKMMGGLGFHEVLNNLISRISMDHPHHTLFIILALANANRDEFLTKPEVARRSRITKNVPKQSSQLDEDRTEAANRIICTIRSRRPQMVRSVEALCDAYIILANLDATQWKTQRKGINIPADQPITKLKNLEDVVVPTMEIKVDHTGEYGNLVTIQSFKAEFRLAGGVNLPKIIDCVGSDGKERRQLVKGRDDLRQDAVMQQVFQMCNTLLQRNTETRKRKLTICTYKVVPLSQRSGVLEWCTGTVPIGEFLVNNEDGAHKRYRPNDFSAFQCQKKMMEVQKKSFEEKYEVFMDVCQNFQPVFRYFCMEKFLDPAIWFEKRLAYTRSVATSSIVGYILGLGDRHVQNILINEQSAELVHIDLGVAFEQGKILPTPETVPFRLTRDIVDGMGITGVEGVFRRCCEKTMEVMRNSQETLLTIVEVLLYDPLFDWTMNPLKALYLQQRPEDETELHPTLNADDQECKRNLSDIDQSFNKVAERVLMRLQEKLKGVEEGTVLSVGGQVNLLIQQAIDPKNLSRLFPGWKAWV

[7] = target: Serine/threonine-protein kinase ATR (Homo sapiens, UniProt Q13535)
in vitro = details: dog, MDCK-MDR1
Description: Efflux ratio of apparent permeability across basolateral to apical over apical to basolateral side in MDCK cells overexpressing MDR1

[8] = target: Voltage-gated inwardly rectifying potassium channel KCNH2 (Homo sapiens, UniProt Q12809); assay: Inhibition of human ERG by electrophysiology assay
Voltage-gated inwardly rectifying potassium channel KCNH2, sequence (Q12809 whole entry): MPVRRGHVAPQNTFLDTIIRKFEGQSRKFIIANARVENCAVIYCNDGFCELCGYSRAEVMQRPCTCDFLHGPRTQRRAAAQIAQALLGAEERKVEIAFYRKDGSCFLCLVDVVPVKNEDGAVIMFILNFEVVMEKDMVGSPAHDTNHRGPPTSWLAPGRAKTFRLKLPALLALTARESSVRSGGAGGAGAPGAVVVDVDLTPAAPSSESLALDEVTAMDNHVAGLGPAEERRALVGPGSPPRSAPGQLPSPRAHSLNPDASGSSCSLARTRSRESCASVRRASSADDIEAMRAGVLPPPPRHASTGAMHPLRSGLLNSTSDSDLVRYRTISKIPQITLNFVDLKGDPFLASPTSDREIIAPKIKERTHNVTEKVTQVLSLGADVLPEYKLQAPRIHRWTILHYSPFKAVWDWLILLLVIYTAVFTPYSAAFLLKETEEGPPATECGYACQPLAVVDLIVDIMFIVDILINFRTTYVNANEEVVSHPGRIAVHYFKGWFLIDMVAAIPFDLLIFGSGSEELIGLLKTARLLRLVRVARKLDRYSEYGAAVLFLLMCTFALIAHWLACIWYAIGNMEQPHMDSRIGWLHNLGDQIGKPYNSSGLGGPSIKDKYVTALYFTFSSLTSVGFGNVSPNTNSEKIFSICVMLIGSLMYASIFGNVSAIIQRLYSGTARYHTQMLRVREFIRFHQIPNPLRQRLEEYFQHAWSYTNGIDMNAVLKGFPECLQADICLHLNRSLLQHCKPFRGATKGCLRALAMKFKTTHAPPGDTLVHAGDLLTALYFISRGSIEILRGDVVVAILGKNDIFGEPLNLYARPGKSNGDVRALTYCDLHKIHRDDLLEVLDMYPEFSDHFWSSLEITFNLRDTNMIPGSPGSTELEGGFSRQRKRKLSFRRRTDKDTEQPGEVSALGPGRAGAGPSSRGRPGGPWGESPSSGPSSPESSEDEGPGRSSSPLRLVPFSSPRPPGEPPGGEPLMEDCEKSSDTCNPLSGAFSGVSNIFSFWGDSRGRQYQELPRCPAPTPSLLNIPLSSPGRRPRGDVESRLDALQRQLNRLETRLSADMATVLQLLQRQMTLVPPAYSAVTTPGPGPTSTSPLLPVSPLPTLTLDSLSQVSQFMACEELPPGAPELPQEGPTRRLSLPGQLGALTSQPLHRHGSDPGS

[9] = Dissociation constant, pKa of the compound; type: physicochemical

logD [1]	solubility thermodynamic at 24 h [2]	hepatocyte CLint [3]	hepatocyte CLint [4]	Papp A→B [5]	IC50 [6]	IC50 [7]	efflux ratio (in vitro)	pKa [9]	SMILES	IC50 [8]
2.2	> 1000 µM	5.1 µL/min/1e6 cells	18 µL/min/1e6 cells	6.3 ×10⁻⁶ cm/s	0.23 µM	> 30 µM	–	–	CO[C@H]1C[C@@H](n2c(=O)n(C)c3cnc4cc(F)c(-c5ccc(N(C)CCN(C)C)nc5)cc4c32)C1	–
–	–	–	–	12 ×10⁻⁶ cm/s	–	–	8.7	–	COCc1ccc(-c2cc3c(N[C@@H](C)c4ccn(C)n4)c(C(N)=O)cnc3cc2F)cn1	–
1.1	> 1000 µM	3.5 µL/min/1e6 cells	2.7 µL/min/1e6 cells	< 0.2 ×10⁻⁶ cm/s	–	–	> 100	–	CN(C)CCCOc1ccc(-c2ccc3ncc4c(c3c2)n([C@H]2C[C@@H](O)C2)c(=O)n4C)cn1	> 33 µM
2.7	> 1000 µM	22 µL/min/1e6 cells	1.6 µL/min/1e6 cells	27 ×10⁻⁶ cm/s	0.49 µM	> 30 µM	0.8	–	COCc1ccc(-c2cc3c(cc2F)ncc2c3n([C@@H](C)C3CCOCC3)c(=O)n2C)cn1	15 µM
0.6	750 µM (≈ 388 µg/mL)	–	< 1 µL/min/1e6 cells	–	27 µM	> 30 µM	–	8.4	CO[C@H]1C[C@@H](n2c(=O)n(C)c3cnc4ccc(-c5ccc(OCCCN6CCC(O)CC6)nc5)cc4c32)C1	–
2.4	330 µM (≈ 171 µg/mL)	4 µL/min/1e6 cells	6.2 µL/min/1e6 cells	7.1 ×10⁻⁶ cm/s	0.0011 µM	–	1.4	–	Cn1c(=O)n([C@H]2CCCOC2)c2c3cc(-c4ccc(OCCCN5CCCCC5)nc4)c(F)cc3ncc21	18 µM
1.8	> 1000 µM	5.6 µL/min/1e6 cells	3.7 µL/min/1e6 cells	7.5 ×10⁻⁶ cm/s	–	> 23 µM	–	–	CN(C)CCCOc1ccc(-c2ccc3ncc4c(c3c2)n([C@@H]2CCCOC2)c(=O)n4C)cn1	> 33 µM
2.1	> 1000 µM	14 µL/min/1e6 cells	9 µL/min/1e6 cells	10 ×10⁻⁶ cm/s	–	–	2.5	–	CO[C@H]1C[C@@H](n2c(=O)n(C)c3cnc4cc(F)c(-c5ccc(OCCCN(C)C)nc5F)cc4c32)C1	22 µM
1.8	> 1000 µM	6.1 µL/min/1e6 cells	3 µL/min/1e6 cells	6.5 ×10⁻⁶ cm/s	–	–	–	–	CN(C)CCCOc1ccc(-c2ccc3ncc4c(c3c2)n([C@H]2CCCOC2)c(=O)n4C)cn1	27 µM
1.6	–	12.8 µL/min/1e6 cells	9.2 µL/min/1e6 cells	–	0.0017 µM	2 µM	–	–	CN(C)CCCOc1ccc(-c2ccc3ncc4c(c3n2)n(C2CCOCC2)c(=O)n4C)cn1	–
1.5	> 1000 µM	6.8 µL/min/1e6 cells	8.3 µL/min/1e6 cells	7.9 ×10⁻⁶ cm/s	–	–	4.4	–	CN(C)CCCOc1ccc(-c2cc3c(cc2F)ncc2c3n(C3CCOCC3)c(=O)n2C)cn1	> 33 µM
2.9	41 µM (≈ 15.9 µg/mL)	–	–	–	> 30 µM	> 27.6 µM	–	–	CC(C)n1c(=O)n(C2CCOCC2)c2c3cc(-c4cccnc4)ccc3ncc21	–
2.8	–	–	–	0.8 ×10⁻⁶ cm/s	0.0086 µM	> 30 µM	28	–	CCC(CC)CNc1c(C(N)=O)cnc2cc(F)c(-c3cnc(NCCN4CCCC4)nc3)cc12	–
0.4	930 µM (≈ 416 µg/mL)	4.4 µL/min/1e6 cells	4.8 µL/min/1e6 cells	0.65 ×10⁻⁶ cm/s	–	–	41	10.3	CNCCCOc1ccc(-c2ccc3ncc4c(c3c2)n([C@H]2C[C@@H](OC)C2)c(=O)n4C)cn1	> 33 µM
1.1	870 µM (≈ 441 µg/mL)	6.5 µL/min/1e6 cells	7 µL/min/1e6 cells	0.4 ×10⁻⁶ cm/s	0.0082 µM	> 30 µM	77	–	CO[C@H]1C[C@@H](n2c(=O)n(C)c3cnc4cc(F)c(-c5ccc(NC(=O)CCCN(C)C)nc5)cc4c32)C1	18 µM
1.3	18 µM (≈ 8.47 µg/mL)	–	2.4 µL/min/1e6 cells	14 ×10⁻⁶ cm/s	0.16 µM	> 16 µM	2.4	–	CO[C@H]1C[C@@H](n2c(=O)n(C)c3cnc4cc(F)c(-c5ccc(CS(C)(=O)=O)nc5)cc4c32)C1	14 µM
1.8	> 980 µM	7.9 µL/min/1e6 cells	6.6 µL/min/1e6 cells	6.8 ×10⁻⁶ cm/s	–	–	6.2	9.3	CO[C@H]1C[C@@H](n2c(=O)n(C)c3cnc4cc(F)c(-c5ccc(OCCCN(C)C)nc5)cc4c32)C1	> 33 µM

logD [1]	solubility thermodynamic at 24 h [2]	hepatocyte CLint [3]	hepatocyte CLint [4]	Papp A→B [5]	IC50 [6]	IC50 [7]	efflux ratio (in vitro)	pKa [9]	SMILES	IC50 [8]
3.2	84 µM (≈ 37.8 µg/mL)	10 µL/min/1e6 cells	10 µL/min/1e6 cells	20 ×10⁻⁶ cm/s	0.24 µM	> 26 µM	0.6	–	COCc1ccc(-c2cc3c(cc2F)ncc2c3n([C@H]3CC[C@H](OC)CC3)c(=O)n2C)cn1	27 µM
1.4	770 µM (≈ 365 µg/mL)	3.3 µL/min/1e6 cells	2.5 µL/min/1e6 cells	3.5 ×10⁻⁶ cm/s	–	> 24 µM	7.8	–	CO[C@H]1C[C@@H](n2c(=O)n(C)c3cnc4ccc(-c5ccc(OCCCN6CCC6)nc5)cc4c32)C1	> 33 µM
0.8	–	< 1 µL/min/1e6 cells	2.5 µL/min/1e6 cells	–	0.022 µM	> 30 µM	–	–	CN(C)CCCOc1ccc(-c2ccc3nnc4c(c3c2)n(C2CCOCC2)c(=O)n4C)cn1	–
2.2	> 1000 µM	3 µL/min/1e6 cells	4 µL/min/1e6 cells	5.4 ×10⁻⁶ cm/s	–	–	–	–	CO[C@H]1C[C@@H](n2c(=O)n(C)c3cnc4ccc(-c5ccc(OCCCN6CCCCC6)nc5)cc4c32)C1	14 µM
1.5	980 µM (≈ 483 µg/mL)	4 µL/min/1e6 cells	2.9 µL/min/1e6 cells	2.5 ×10⁻⁶ cm/s	0.13 µM	> 30 µM	11	–	CO[C@H]1C[C@@H](n2c(=O)n(C)c3cnc4cc(F)c(-c5ccc(C(=O)NCCN(C)C)nc5)cc4c32)C1	> 33 µM
2.3	19 µM (≈ 7.68 µg/mL)	< 3 µL/min/1e6 cells	63 µL/min/1e6 cells	32 ×10⁻⁶ cm/s	–	> 13 µM	–	–	COCc1ccc(-c2ccc3ncc4c(c3c2)n(C2CCOCC2)c(=O)n4C)cn1	> 33 µM
2	23 µM (≈ 9.39 µg/mL)	–	5 µL/min/1e6 cells	29 ×10⁻⁶ cm/s	0.23 µM	15 µM	1.1	–	CO[C@H]1C[C@@H](n2c(=O)n(C)c3cnc4cc(F)c(-c5ccc(CO)nc5)cc4c32)C1	23 µM
0.7	52 µM (≈ 22.5 µg/mL)	< 1 µL/min/1e6 cells	7.8 µL/min/1e6 cells	3.2 ×10⁻⁶ cm/s	–	–	9.8	–	CN(C)CCCOc1ccc(-c2ccc3ncc4c(c3c2)n(C2COC2)c(=O)n4C)cn1	> 33 µM
3	49 µM (≈ 20.7 µg/mL)	8.4 µL/min/1e6 cells	4.3 µL/min/1e6 cells	28 ×10⁻⁶ cm/s	0.16 µM	> 28 µM	0.6	–	COCc1ccc(-c2cc3c(cc2F)ncc2c3n([C@H]3C[C@H](OC)C3)c(=O)n2C)cn1	8.9 µM
1.8	> 1100 µM	5.3 µL/min/1e6 cells	< 1.3 µL/min/1e6 cells	2.5 ×10⁻⁶ cm/s	0.00017 µM	> 24 µM	9.4	–	CO[C@H]1C[C@@H](n2c(=O)n(C)c3cnc4ccc(-c5ccc(OCCCN6CCCC6)nc5)cc4c32)C1	> 33 µM
2	> 1100 µM	15 µL/min/1e6 cells	9.3 µL/min/1e6 cells	4.2 ×10⁻⁶ cm/s	–	–	–	–	CO[C@H]1C[C@@H](n2c(=O)n(C)c3cnc4ccc(-c5ccc(OCCCN(C)C)nc5F)cc4c32)C1	> 33 µM
2.4	12 µM (≈ 4.16 µg/mL)	–	–	–	–	0.051 µM	–	–	O=c1[nH]c2cnc3ccc(-c4cccnc4)cc3c2n1C1CCOCC1	–
2	270 µM (≈ 110 µg/mL)	2.7 µL/min/1e6 cells	6 µL/min/1e6 cells	14 ×10⁻⁶ cm/s	0.14 µM	> 30 µM	2.6	–	COCc1ccc(-c2cc3c(cc2F)ncc2c3n([C@H]3C[C@@H](O)C3)c(=O)n2C)cn1	15 µM
2.1	310 µM (≈ 161 µg/mL)	5.3 µL/min/1e6 cells	5.1 µL/min/1e6 cells	6.4 ×10⁻⁶ cm/s	0.0012 µM	> 29 µM	2.2	–	Cn1c(=O)n(C2CCOCC2)c2c3cc(-c4ccc(OCCCN5CCCCC5)nc4)c(F)cc3ncc21	> 33 µM
–	–	–	–	–	0.005 µM	10 µM	–	–	Cn1c(=O)n(C2CCOCC2)c2c3cc(-c4ccc(OCCC[N+](C)(C)[O-])nc4)ccc3ncc21	–
2.4	99 µM (≈ 41.8 µg/mL)	< 4 µL/min/1e6 cells	7.5 µL/min/1e6 cells	43 ×10⁻⁶ cm/s	0.45 µM	> 20 µM	0.8	–	COCc1ccc(-c2cc3c(cc2F)ncc2c3n(C3CCOCC3)c(=O)n2C)cn1	27 µM
1.7	> 1000 µM	2.8 µL/min/1e6 cells	9.6 µL/min/1e6 cells	3.4 ×10⁻⁶ cm/s	0.006 µM	> 30 µM	11	–	CO[C@H]1C[C@@H](n2c(=O)n(C)c3cnc4cc(F)c(-c5ccc(NCCN(C)C)nc5)cc4c32)C1	24 µM
